Consider `CCCCN(CCCC)CCNC(=O)c1cccc(NC(=O)N2CCc3cc(SC)c(C(F)(F)F)cc32)c1`, for which the melting point lay within 128 to 130 °C.

`CC(=S)NC[C@H]1CN(c2ccc3c(c2)C[C@@H](C)N3C=O)C(=O)O1` registered a melting point of 95 to 96 °C.

`O=C(O)c1c[nH]c(Sc2ccc(Cl)c(Cl)c2)c1` displayed a melting point of 156 to 159 °C.

Take `O=C1N[C@@H](CSSc2ccccc2)C(=O)N2CCC[C@H]12`: the melting point turned out to be 120 °C.

The compound `CCOC(=O)c1cc(Nc2cccc(Cl)c2)c(C(=O)OCC)cc1Nc1cccc(Cl)c1` registered a melting point of 145 to 146 °C.

Regarding `CCC(C)c1c(OC)ccc2c1oc1ccc(C#N)cc12` (stereo unspecified), the melting point lay in the range of 80 to 82 °C.

The compound `O=C(O)c1cn(C2CC2)c2c(F)c(N3CCC(n4ncnn4)C3)c(F)cc2c1=O` (stereo unspecified) had a melting point of 192 to 199 °C.

`COc1ccc([C@]2(C)Cc3cc(OC)ccc3[C@@H]2CCC2OCCCO2)cc1` (racemic) came in with a melting point of 86 to 88 °C.

`CC(C)(C)[Si](C)(C)Oc1ccc2c(c1)OC(c1ccc(O)cc1)c1c-2sc2cc(O[Si](C)(C)C(C)(C)C)ccc12` (stereo unspecified): the melting point is 174 to 175 °C.

For the compound `CCc1nccn1CC1CC2c3cccc4[nH]cc(c34)CC2N(C)C1` (stereo unspecified), the melting point was 232 to 237 °C.

The compound `CC(=O)OCC1OC(n2cc(Cc3ccc(Cl)cc3)c3c(Cl)cccc32)C(OC(C)=O)C(OC(C)=O)C1OC(C)=O` (stereo unspecified) gave a melting point of 214 to 216 °C.

Regarding `CN(CCOc1ccc2ccc(N)nc2n1)C(=O)OC(C)(C)C`, the melting point amounted to 170 °C.

The compound `O=C(O)c1cccc(Oc2ccc(C(F)(F)F)cn2)c1` gave a melting point of 146 °C.

In the case of `O=C(O)C(CCSc1ccccc1)Oc1ccc(C(F)(F)F)cc1` (stereo unspecified), the melting point lay in the range of 108 to 110 °C.

As for `C=C(C)COc1ccc(Br)cc1CN(CC)c1ccc(C(=O)NS(=O)(=O)c2scnc2C)nn1`, the melting point was 128 °C.

Compound `CCOC(=O)C(C)(C)Oc1ccc(-c2ccc(CCNC(=O)c3ccccc3)cc2)cc1` showed a melting point of 100 °C.

With `COc1ccc(N(C=C(C#N)C#N)CCC#N)cc1`, the melting point is 175 to 177 °C.

`CN(C)C(=O)OCc1nc([N+](=O)[O-])c(C#N)n1C` registered a melting point of 85 to 88 °C.

As for `CCn1c(C(OCCO)(c2cccc(C(F)(F)F)c2)c2cccc(C(F)(F)F)c2)nc(-c2ccncc2)c1-c1ccc(Cl)cc1`, the melting point was in the range of 222 to 223 °C.

`C=C(C)CN(CCC12CC3CC(CC(C3)C1)C2)C(=O)NCCCc1ccncc1` had a melting point of 108 to 109 °C.

Consider `FC(F)Oc1cnnc(-c2cccc(C(F)(F)F)c2)c1`, for which the melting point lay in the range of 70 to 72 °C.

Turning to `CC(C)(CO)NC(=O)Cc1ccc2c(c1)C(=O)c1sccc1CO2`, the melting point was 162 to 163 °C.

As to `CN1CCN(c2nn(S(=O)(=O)c3ccccc3)c3cc(F)ccc23)CC1`, the melting point is 159 to 161 °C.

`CC(=O)Cc1ccc(C#CC(C)(C)O)cc1` returned a melting point of 67 to 69 °C.

`Oc1ccc2c(ccc3ccccc32)c1-c1c(O)ccc2c1ccc1ccccc12`: the melting point was 244 to 245 °C.

Take `CC(=O)OCC1CCCn2c(c(C3=C(c4cn(C)c5ccccc45)C(=O)OC3=O)c3ccccc32)C1` (stereo unspecified): the melting point fell in the range of 164 to 166 °C.

`O=C1c2cc(F)ccc2-n2c1nc1ccc(F)cc1c2=O`: the melting point was in the range of 295 to 296 °C.

Compound `Cc1ccc(C(=O)O)nn1` gave a melting point of 174 °C.

On to `COC(=O)c1nn(-c2ccc(I)cc2F)cc(OC)c1=O`, for which the melting point is 160 to 162 °C.

For `CC(=O)NCC1CN(c2c(F)c(N)c3c(=O)c(C(=O)O)cn(C4CC4)c3c2F)CCO1` (stereo unspecified), the melting point was in the range of 228 to 229 °C.

`COCC1(C)Oc2ccc(C#N)cc2C2OC21` (stereo unspecified) came in with a melting point of 88 to 90 °C.

For the compound `O=C(NCc1ncc(O)c2ccccc12)c1ccccc1`, the melting point lay in the range of 130 to 131 °C.

For the compound `COc1ccc(-n2c(=O)c(C)nc3ccccc32)cc1`, the melting point lay within 230 to 232 °C.

Compound `COc1ccc2c3c1OC1C(=O)CC(C)C4(OC)C(C2)N(C)CCC314` (stereo unspecified) had a melting point of 204 to 205 °C.

On to `Fc1c(F)c(F)c(CSc2nc3ccccc3[nH]2)c(F)c1F`, for which the melting point was in the range of 189 to 196 °C.

The compound `CCCN(CCC)C(=O)CCCN1CC[C@H](CNC(=O)c2ccc(N)cc2OC)[C@H](OC)C1` (relative stereo) registered a melting point of 133 °C.

`CCCCCCC1CCC(c2ccc(C(=O)CC(C)=O)cc2)CC1` (stereo unspecified) gave a melting point of 74 °C.

With `Nc1nc2ccccc2c2c1nc(N)n2Cc1ccccc1`, the melting point was 254 to 256 °C.

Consider `CNC(=O)C(=O)CCCCCCc1csc(-c2ccccc2)n1`, for which the melting point was in the range of 70 to 72 °C.

The compound `COC(=O)C(NS(=O)(=O)Cc1c(Cl)c(C)cc2nc(OC)c(OC)nc12)c1ccccc1` (stereo unspecified) yielded a melting point of 214 to 217 °C.

Compound `CN1CCN(C(=O)Oc2ccccc2)C1=C(C(=O)Oc1ccccc1)[N+](=O)[O-]` gave a melting point of 214 to 215 °C.

For the compound `CSc1nc(C)ccc1NC(=O)CCCCCSc1nc2ccccc2[nH]1`, the melting point lay within 138 to 140 °C.

With `CN(CCC(=O)O)C(=O)N(c1ccc(Cl)cc1)C(C)(C)C`, the melting point was in the range of 90 to 95 °C.

For `Cc1cc(S(=O)(=O)O)ccc1NC(=O)NN`, the melting point lay within 252 to 255 °C.

`CCNc1ncc(S(=O)(=O)NCC)cc1[N+](=O)[O-]` came in with a melting point of 153 to 155 °C.

Consider `CCN(CC)C(=O)c1cc(-c2ccccc2)c2ccccc2c1-c1ccccc1`, for which the melting point lay within 111 to 113 °C.

The compound `Nc1nc(N)nc(C2CN(C(c3ccccc3)c3ccccc3)C2)n1` had a melting point of 126 to 128 °C.

For the compound `Cn1cccc1C(=O)Nc1nc(-c2cccc(C#N)c2)c(-n2cncn2)s1`, the melting point was 245 to 247 °C.

On to `Cc1ccc(-c2nnc[nH]2)cc1-c1cc2cnc(NC3CCOCC3)nc2n(C)c1=O`, for which the melting point lay within 215 to 216 °C.

In turn, `CCC(=O)c1cc2ccccc2s1` yielded a melting point of 79 to 81 °C.

`CC(NS(C)(=O)=O)c1ccc2[nH]cc(CCN3C(=O)c4ccccc4C3=O)c2c1` (stereo unspecified) came in with a melting point of 203 to 205 °C.

With `CCOC(=O)NNc1ccc(-c2ccccc2)nn1`, the melting point fell in the range of 158 to 160 °C.

For the compound `c1cc2[nH]ncc2cc1OC1CCOCC1`, the melting point is 151 to 153 °C.

With `CC(C)CN1C(=O)CC[C@H]1COC(c1ccccc1)(c1ccccc1)c1ccccc1`, the melting point lay within 91 to 93 °C.

In turn, `CCSC(C)(C)C(=O)C(C(=O)Nc1cc(NC(=O)CCCOc2ccc(C(C)(C)CC)cc2C(C)(C)CC)ccc1OC)N1C(=O)OC(C)(C)C1=O` (stereo unspecified) came in with a melting point of 155 to 156 °C.

Compound `CCNC(=O)N1C2=NC(C)(C)N(C)C(=O)N2c2ccccc21` yielded a melting point of 127 to 131 °C.

In turn, `CCc1nccn1-c1nc(-c2ccc(Cl)cc2)c(CCCOc2ccccc2C)o1` showed a melting point of 91 to 92 °C.

As for `BrCc1ccccc1-c1cc(-c2ccccc2)on1`, the melting point was in the range of 68 to 72 °C.

For `CN1CCN(c2ccc(Nc3nc(N)c(C(=O)c4c(F)cccc4C(F)(F)F)s3)cc2)CC1`, the melting point was in the range of 155 to 158 °C.

The compound `COC(=O)Cn1ccc2ccc(-c3csc(-c4ccccc4)n3)cc21` yielded a melting point of 83 °C.

In turn, `COc1cc(CCNc2ncnc3scnc23)ccc1O` showed a melting point of 151 to 154 °C.

`CC(=O)OCc1c(Br)cccc1N1CCc2c(sc3c2CCCC3)C1=O` gave a melting point of 74 to 75 °C.

Compound `O=C1CC(c2ccc3oc4c(c3c2)CCCC4)CC(=O)O1` registered a melting point of 164 to 166 °C.

For the compound `COc1ccc(-n2c(=O)c(C(=O)Cl)nc3c(Cl)cccc32)cc1`, the melting point fell in the range of 131 to 134 °C.

Compound `Cc1cc(Nc2nccc(-c3sc(N)nc3C)n2)ccc1N1CCCCC1` gave a melting point of 221 to 223 °C.

As to `OCc1ccc(/C=C/c2ccncc2)cc1`, the melting point was 211 to 213 °C.

On to `COC(=O)NC(=O)Nc1ccc(OC)c(OC)c1`, for which the melting point was in the range of 168 to 170 °C.

Regarding `COC(=O)c1ccc(O)cn1`, the melting point is 188 to 190 °C.

The compound `O=C(NCc1ccc(C(F)(F)F)c(N2CCCCC2)c1)Nc1cccc2c1CC(O)CC2` (stereo unspecified) gave a melting point of 163 °C.

On to `C[C@@H](NS(=O)(=O)N1CCN(c2ccc(OCc3ccc4ccccc4c3)cc2)CC1)C(=O)O`, for which the melting point was in the range of 167 to 171 °C.

Consider `COc1ccc(-c2[nH]nc3c2C(=O)c2c(NC(N)=O)cccc2-3)cc1`, for which the melting point was in the range of 267 to 269 °C.

For the compound `Cc1cc(-c2c[nH]c(N)n2)ccn1`, the melting point lay in the range of 226 to 228 °C.

`CCCC(CCC)C(=O)OC1N=C(c2ccccc2Cl)c2cc(Cl)ccc2NC1=O` (stereo unspecified) had a melting point of 191 to 193 °C.

Compound `O=C(Cn1nnc2ccccc21)Nc1ccc(-n2nc(C(F)(F)F)cc2C2CC2)cc1` had a melting point of 200 to 204 °C.

For the compound `COC(=O)c1ccc(NC(=O)c2ccccc2OC(C)C)c(C(=O)OC)c1`, the melting point was 107 to 110 °C.

With `CC(C)N1C(=O)C(=O)N(c2cc(Cl)cc(Cl)c2)S1=O` (stereo unspecified), the melting point was found to be 109 °C.

In turn, `COc1cc2c(Nc3ccc(Cl)cc3F)ncnc2cc1OCCN(C)c1cc(C)nc(C)c1` showed a melting point of 208 to 212 °C.

Take `CC(=C1SC(=O)NC1=O)c1ccc(OCCOc2c(-c3ccc(F)c(F)c3)n(C)c3cc(F)ccc3c2=O)cc1`: the melting point was 270 to 272 °C.

`COCCOCc1c(CN(C)CC(O)c2cccnc2)sc2c(=O)c(C(=O)NCc3ccc(Cl)cc3)cn(C)c12` (stereo unspecified) had a melting point of 129 to 132 °C.

The compound `COC(=O)c1nc(N(C)C)ccc1OCc1ccccc1` had a melting point of 71.5 to 73 °C.

Consider `C[C@@H]1CN(c2ncc3ncnc(Nc4ccc(F)c(Cl)c4)c3n2)CC[C@@H]1N` (relative stereo), for which the melting point is 161 to 164 °C.

On to `COC(=O)c1ccc(CNC(C)=O)cc1S(N)(=O)=O`, for which the melting point lay within 173 to 175 °C.

Regarding `Cc1cc(Cl)cc2c1NS(=O)(=O)N(C(C)C)C2=O`, the melting point is 142 to 144 °C.

Take `CC(C)NC(=O)Nc1ccc2c(c1)C(c1ccccc1F)=NCC(=O)N2C`: the melting point lay within 185 to 188 °C.

`CCCCn1c(=O)c2nn(S(=O)(=O)c3ccc4ccccc4c3)cc2n(CCCC)c1=O` had a melting point of 167 to 168 °C.

With `C#CCN1C(=O)CN(C)c2ccc(-c3ncc(C(F)(F)F)cc3Cl)cc21`, the melting point was in the range of 128 to 129 °C.

Source of the values: a melting point compilation (Tetko et al.; mined from patent text by program, amines drawn as free bases though some values may be those of a salt).
